For 4 molecules, TGI results are on record in PubChem BioAssay (NCI).

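How tested: cells in 96-well plates exposed to compound for 48 hours at five concentrations. At the TGI there is no net growth.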

In the first experiment the test system is HOP-62 NSCLC. As to the kind of experiment: NCI anticancer screen, dose series, 48 h.
On to `CC(=O)N1C(=O)/C(=C\C(=O)c2ccc([N+](=O)[O-])cc2)c2ccccc21`, for which the TGI is more than 100 µM.

Another experiment concerns HOP-92 NSCLC. As to the kind of experiment: NCI anticancer screen, dose series, 48 h.
In turn, `C/C(=N/NC(=S)Nc1ccc([N+](=O)[O-])cc1)c1cccc(/C(C)=N\NC(=S)Nc2ccc([N+](=O)[O-])cc2)n1` had a TGI of 11.6 µM.
`CCOC(=O)C1=[N+]([O-])OC2=C(O)CCCC21` (stereo not given) came in with a TGI of more than 100 µM.
`CCCCCCCCCCC(C(=O)O)C1(C(=O)O)CCC(=O)O1` (stereo not given): the TGI was more than 100 µM.

The test system of the next experiment is HS 578T breast. As to the kind of experiment: NCI anticancer screen, dose series, 48 h.
`C/C(=N/NC(=S)Nc1ccc([N+](=O)[O-])cc1)c1cccc(/C(C)=N\NC(=S)Nc2ccc([N+](=O)[O-])cc2)n1` returned a TGI of more than 81.7 µM.
In the case of `CCOC(=O)C1=[N+]([O-])OC2=C(O)CCCC21` (stereo not given), the TGI is more than 100 µM.
`CCCCCCCCCCC(C(=O)O)C1(C(=O)O)CCC(=O)O1` (stereo not given) registered a TGI of more than 100 µM.
On the same count and under the same terms, as for `CC(=O)N1C(=O)/C(=C\C(=O)c2ccc([N+](=O)[O-])cc2)c2ccccc21`, the figure is 54.2 µM.

In the next experiment the test system is HT29 colon. Briefly: NCI anticancer screen, dose series, 48 h.
In turn, `C/C(=N/NC(=S)Nc1ccc([N+](=O)[O-])cc1)c1cccc(/C(C)=N\NC(=S)Nc2ccc([N+](=O)[O-])cc2)n1` registered a TGI of 16 µM.
For `CCOC(=O)C1=[N+]([O-])OC2=C(O)CCCC21` (stereo not given), the TGI is more than 100 µM.
In turn, `CCCCCCCCCCC(C(=O)O)C1(C(=O)O)CCC(=O)O1` (stereo not given) returned a TGI of more than 100 µM.
As for `CC(=O)N1C(=O)/C(=C\C(=O)c2ccc([N+](=O)[O-])cc2)c2ccccc21`, the TGI worked out at 34.6 µM.

Another experiment has as its system IGROV1 ovarian. As to the kind of experiment: NCI anticancer screen, dose series, 48 h.
For the molecule `C/C(=N/NC(=S)Nc1ccc([N+](=O)[O-])cc1)c1cccc(/C(C)=N\NC(=S)Nc2ccc([N+](=O)[O-])cc2)n1`, the TGI was found to be 8.11 µM.
The same measure, in the same setting: as for `CCOC(=O)C1=[N+]([O-])OC2=C(O)CCCC21` (stereo not given), the figure is more than 100 µM.
`CCCCCCCCCCC(C(=O)O)C1(C(=O)O)CCC(=O)O1` (stereo not given) showed a TGI of more than 100 µM.
The molecule `CC(=O)N1C(=O)/C(=C\C(=O)c2ccc([N+](=O)[O-])cc2)c2ccccc21` registered a TGI of 53.9 µM.

The next experiment concerns K-562 leukemia. As to the kind of experiment: NCI anticancer screen, dose series, 48 h.
`C/C(=N/NC(=S)Nc1ccc([N+](=O)[O-])cc1)c1cccc(/C(C)=N\NC(=S)Nc2ccc([N+](=O)[O-])cc2)n1` came in with a TGI of more than 39.4 µM.
In turn, `CCOC(=O)C1=[N+]([O-])OC2=C(O)CCCC21` (stereo not given) yielded a TGI of more than 100 µM.
`CCCCCCCCCCC(C(=O)O)C1(C(=O)O)CCC(=O)O1` (stereo not given): the TGI is more than 100 µM.
The molecule `CC(=O)N1C(=O)/C(=C\C(=O)c2ccc([N+](=O)[O-])cc2)c2ccccc21` registered a TGI of 36.5 µM.

A further experiment deals with KM12 colon. Briefly: NCI anticancer screen, dose series, 48 h.
Turning to `C/C(=N/NC(=S)Nc1ccc([N+](=O)[O-])cc1)c1cccc(/C(C)=N\NC(=S)Nc2ccc([N+](=O)[O-])cc2)n1`, the TGI was more than 35.7 µM.
Molecule `CCOC(=O)C1=[N+]([O-])OC2=C(O)CCCC21` (stereo not given) had a TGI of more than 100 µM.
The molecule `CCCCCCCCCCC(C(=O)O)C1(C(=O)O)CCC(=O)O1` (stereo not given) displayed a TGI of more than 100 µM.
The molecule `CC(=O)N1C(=O)/C(=C\C(=O)c2ccc([N+](=O)[O-])cc2)c2ccccc21` yielded a TGI of 55.5 µM.

The test system of a further experiment is LOX IMVI melanoma. Briefly: NCI anticancer screen, dose series, 48 h.
For `C/C(=N/NC(=S)Nc1ccc([N+](=O)[O-])cc1)c1cccc(/C(C)=N\NC(=S)Nc2ccc([N+](=O)[O-])cc2)n1`, the TGI was 12.7 µM.
In turn, `CCOC(=O)C1=[N+]([O-])OC2=C(O)CCCC21` (stereo not given) showed a TGI of more than 100 µM.
In turn, `CCCCCCCCCCC(C(=O)O)C1(C(=O)O)CCC(=O)O1` (stereo not given) displayed a TGI of more than 100 µM.

For the next experiment, the system named is M14 melanoma. As to the kind of experiment: NCI anticancer screen, dose series, 48 h.
The molecule `C/C(=N/NC(=S)Nc1ccc([N+](=O)[O-])cc1)c1cccc(/C(C)=N\NC(=S)Nc2ccc([N+](=O)[O-])cc2)n1` came in with a TGI of 2.7 µM.
As for `CCOC(=O)C1=[N+]([O-])OC2=C(O)CCCC21` (stereo not given), the TGI is more than 100 µM.
`CCCCCCCCCCC(C(=O)O)C1(C(=O)O)CCC(=O)O1` (stereo not given) had a TGI of more than 100 µM.
`CC(=O)N1C(=O)/C(=C\C(=O)c2ccc([N+](=O)[O-])cc2)c2ccccc21` registered a TGI of more than 100 µM.

The next experiment concerns MALME-3M melanoma. As to the kind of experiment: NCI anticancer screen, dose series, 48 h.
Regarding `C/C(=N/NC(=S)Nc1ccc([N+](=O)[O-])cc1)c1cccc(/C(C)=N\NC(=S)Nc2ccc([N+](=O)[O-])cc2)n1`, the TGI was determined as 9.13 µM.
For `CCOC(=O)C1=[N+]([O-])OC2=C(O)CCCC21` (stereo not given), the TGI is more than 100 µM.
Still for that read-out and setting: the same measure for `CC(=O)N1C(=O)/C(=C\C(=O)c2ccc([N+](=O)[O-])cc2)c2ccccc21`: 45.9 µM.

The next experiment relates to MCF7 breast. As to the kind of experiment: NCI anticancer screen, dose series, 48 h.
`C/C(=N/NC(=S)Nc1ccc([N+](=O)[O-])cc1)c1cccc(/C(C)=N\NC(=S)Nc2ccc([N+](=O)[O-])cc2)n1` showed a TGI of 3.86 µM.
Still for that read-out and setting: as for `CCOC(=O)C1=[N+]([O-])OC2=C(O)CCCC21` (stereo not given), the figure is more than 100 µM.
On the same count and under the same terms, the same measure for `CCCCCCCCCCC(C(=O)O)C1(C(=O)O)CCC(=O)O1` (stereo not given): more than 100 µM; for `CC(=O)N1C(=O)/C(=C\C(=O)c2ccc([N+](=O)[O-])cc2)c2ccccc21`: 69.7 µM.

For another experiment, the system named is MDA-MB-231 breast. As to the kind of experiment: NCI anticancer screen, dose series, 48 h.
As for `C/C(=N/NC(=S)Nc1ccc([N+](=O)[O-])cc1)c1cccc(/C(C)=N\NC(=S)Nc2ccc([N+](=O)[O-])cc2)n1`, the TGI is 17.7 µM.
Take `CCOC(=O)C1=[N+]([O-])OC2=C(O)CCCC21` (stereo not given): the TGI was more than 100 µM.
The molecule `CCCCCCCCCCC(C(=O)O)C1(C(=O)O)CCC(=O)O1` (stereo not given) yielded a TGI of more than 100 µM.
For the molecule `CC(=O)N1C(=O)/C(=C\C(=O)c2ccc([N+](=O)[O-])cc2)c2ccccc21`, the TGI was determined as 84.5 µM.

For a further experiment, the system named is MDA-MB-435. Briefly: NCI anticancer screen, dose series, 48 h.
The molecule `C/C(=N/NC(=S)Nc1ccc([N+](=O)[O-])cc1)c1cccc(/C(C)=N\NC(=S)Nc2ccc([N+](=O)[O-])cc2)n1` displayed a TGI of more than 38.7 µM.
`CCOC(=O)C1=[N+]([O-])OC2=C(O)CCCC21` (stereo not given) had a TGI of more than 100 µM.
For the molecule `CCCCCCCCCCC(C(=O)O)C1(C(=O)O)CCC(=O)O1` (stereo not given), the TGI was more than 100 µM.
As to `CC(=O)N1C(=O)/C(=C\C(=O)c2ccc([N+](=O)[O-])cc2)c2ccccc21`, the TGI is 61.2 µM.

The next experiment relates to MDA-N. As to the kind of experiment: NCI anticancer screen, dose series, 48 h.
`C/C(=N/NC(=S)Nc1ccc([N+](=O)[O-])cc1)c1cccc(/C(C)=N\NC(=S)Nc2ccc([N+](=O)[O-])cc2)n1` yielded a TGI of 15.1 µM.
On to `CCOC(=O)C1=[N+]([O-])OC2=C(O)CCCC21` (stereo not given), for which the TGI is more than 100 µM.
Regarding `CCCCCCCCCCC(C(=O)O)C1(C(=O)O)CCC(=O)O1` (stereo not given), the TGI is more than 100 µM.
Same read-out and setting: as for `CC(=O)N1C(=O)/C(=C\C(=O)c2ccc([N+](=O)[O-])cc2)c2ccccc21`, the figure is 49.2 µM.

In another experiment the test system is MOLT-4 leukemia. As to the kind of experiment: NCI anticancer screen, dose series, 48 h.
On to `CCOC(=O)C1=[N+]([O-])OC2=C(O)CCCC21` (stereo not given), for which the TGI is more than 100 µM.
Regarding `CCCCCCCCCCC(C(=O)O)C1(C(=O)O)CCC(=O)O1` (stereo not given), the TGI is more than 100 µM.
Molecule `CC(=O)N1C(=O)/C(=C\C(=O)c2ccc([N+](=O)[O-])cc2)c2ccccc21` returned a TGI of 51.6 µM.

The test system of the next experiment is NCI-H226 lung. As to the kind of experiment: NCI anticancer screen, dose series, 48 h.
As for `C/C(=N/NC(=S)Nc1ccc([N+](=O)[O-])cc1)c1cccc(/C(C)=N\NC(=S)Nc2ccc([N+](=O)[O-])cc2)n1`, the TGI is 1.84 µM.
In turn, `CCOC(=O)C1=[N+]([O-])OC2=C(O)CCCC21` (stereo not given) showed a TGI of more than 100 µM.
